From PMC6877482, “Inhibition of AMD-Like Pathology With a Neurotrophic Compound in Aged Rats and 3xTg-AD Mice” (Frontiers in Aging Neuroscience, 2019)

What was measured:
[1] = tested on: retina of aged Fisher rats; assay: Retinal morphology (H & E, rows and thickness of ONL and INL) in aged rats; format: in vivo, rat; conditions: female Fisher rats ~19-21 months, 500 nmoles/kg/day by gavage for 3 months
Description: (§1) Female aged (19–21 months) Fisher rats (n = 7) were given P021 per os by gavage (10 ml/kg body weight) once a day for 88 days. […] To be able to deliver the same constant dose to each animal, we chose gavage. Furthermore, the administration of P021 by gavage is more economical than by drinking water. As controls, the second group of aged (19–21 months) female rats (n = 7) and a group of young adult female rats (2–3 months, n = 7) were treated identically, but with normal saline (vehicle) only (Figure 1A). Administration of vehicle and test compound was done at 7–9 AM daily and blindly to the investigators who collected, processed, and analyzed the tissue.
(§2) The animals were anesthetized by using an overdose of avertin and then were transcardially perfused by using 0.1 M phosphate-buffered saline (PBS). Eyeballs were dissected out from the carcasses, immersion-fixed for 24 h in 4% paraformaldehyde at 4°C, and then transferred to 70% alcohol for storage; in the case of mice, the eyeballs were prefixed by injecting 4% paraformaldehyde, followed by removal from the carcasses and immersion fixation as above. After the cornea and lens of the left eyes were removed, the remaining eye cup was embedded in paraffin, with the orientation parallel to the optic nerve in longitudinal position. In all cases, 5-μm serial sections were cut by using a rotary microtome and were mounted on Superfrost Plus slides. Processing and analysis of the retinal tissue were conducted blind.
(§3) Every 25th retinal section was deparaffinized and subjected to hematoxylin and eosin (H & E) staining to evaluate the morphology. The H & E staining images were captured with a light microscope using 2×, 40×, and 100× objective lenses. Because there is no significant difference between the 1/5th to the 1/3rd of the retina from the optic nerve head and the most peripheral part, we chose the 1/5th position of the retina from the optic nerve to the most peripheral part of the retina as the “central,” and the most peripheral part of the retina as “peripheral.” Rows of the outer nuclear layer (ONL) and the inner nuclear layer (INL) of the retina in each group (every 25th section, 3–5 sections per rat or mouse, n = 5–7 rats per group; n = 5–6 mice per group) were manually counted in three columns per image by using a 40× or, where necessary, a higher magnification objective. The thicknesses of the ONL and INL of the central and peripheral retina in each group (every 25th section from the optic nerve head, 2–3 sections per rat or mouse, n = 3–7 rats per group; n = 5–6 mice per group) were measured and quantified by using the ImageJ/NIH image analysis system. Processing and analysis of the retinal tissue and the data were conducted blind to the genotypes and the treatment of the animals.

[2] = tested on: RPE of aged Fisher rats; assay: RPE and BM pathology (H & E, auto-fluorescence deposits) in aged rats; format: in vivo, rat; conditions: female Fisher rats ~19-21 months, 500 nmoles/kg/day by gavage for 3 months
Description: as §1
(§4) The animals were anesthetized by using an overdose of avertin and then were transcardially perfused by using 0.1 M phosphate-buffered saline (PBS). […]
Every 25th retinal section was deparaffinized and subjected to hematoxylin and eosin (H & E) staining to evaluate the morphology. […] Because there is no significant difference between the 1/5th to the 1/3rd of the retina from the optic nerve head and the most peripheral part, we chose the 1/5th position of the retina from the optic nerve to the most peripheral part of the retina as the “central,” and the most peripheral part of the retina as “peripheral.” Rows of the outer nuclear layer (ONL) and the inner nuclear layer (INL) of the retina in each group (every 25th section, 3–5 sections per rat or mouse, n = 5–7 rats per group; n = 5–6 mice per group) were manually counted in three columns per image by using a 40× or, where necessary, a higher magnification objective. The thicknesses of the ONL and INL of the central and peripheral retina in each group (every 25th section from the optic nerve head, 2–3 sections per rat or mouse, n = 3–7 rats per group; n = 5–6 mice per group) were measured and quantified by using the ImageJ/NIH image analysis system. […]

[3] = tested on: retina of 3xTg-AD mice; assay: Retinal morphology (H & E, rows and thickness of ONL and INL) in aged 3xTg-AD mice; format: in vivo, mouse; conditions: female 3xTg-AD mice, 60 nmoles P021/g feed from 3 to 21 months of age
From the text: (§5) At approximately 3 months of age, the female wild type and 3xTg-AD mice were divided into five groups (n = 6–7 mice per group; Figure 3A): (1) wild type mice, age 3 months, without treatment (WT-3 m); (2) 3xTg-AD mice, age 3 months, without treatment (3xTg-3 m); (3) wild type mice, age 3 months, treated with vehicle feed without P021 until the age of 21 months (WT-21 m/Veh); (4) 3xTg-AD-mice, age 3 months, treated with vehicle feed without P021 until the age of 21 months (3xTg-21 m/Veh); and (5) 3xTg-AD-mice, age 3 months, treated with 60 nmol P021/g feed till the age of 21 months (3xTg-21 m/P021). The first two groups, WT-3 m and 3xTg-AD-3 m, were the starting points and were employed as controls to study age-associated AMD-like changes in WT-21 m and 3xTg-AD-21 m, respectively. We included WT-21 m/Veh as another reference group to enable a comparison of AMD-like changes in 3xTg-21 m/Veh with age-matched WT animals. […] P021 was formulated in the feed by Research Diets (New Brunswick, NJ, USA). Food consumption and body weight were recorded every 2 weeks and every month, respectively. The average mouse food consumption was ~2.7 g feed/day. The analysis of the animals was carried out blind to the treatment.
as §2, §3

[4] = tested on: RPE and BM of 3xTg-AD mice; assay: RPE and BM pathology (H & E, auto-fluorescence deposits) in aged 3xTg-AD mice; format: in vivo, mouse; conditions: female 3xTg-AD mice, 60 nmoles P021/g feed from 3 to 21 months of age
From the text: (§6) At approximately 3 months of age, the female wild type and 3xTg-AD mice were divided into five groups (n = 6–7 mice per group; Figure 3A): (1) wild type mice, age 3 months, without treatment (WT-3 m); (2) 3xTg-AD mice, age 3 months, without treatment (3xTg-3 m); (3) wild type mice, age 3 months, treated with vehicle feed without P021 until the age of 21 months (WT-21 m/Veh); (4) 3xTg-AD-mice, age 3 months, treated with vehicle feed without P021 until the age of 21 months (3xTg-21 m/Veh); and (5) 3xTg-AD-mice, age 3 months, treated with 60 nmol P021/g feed till the age of 21 months (3xTg-21 m/P021). The first two groups, WT-3 m and 3xTg-AD-3 m, were the starting points and were employed as controls to study age-associated AMD-like changes in WT-21 m and 3xTg-AD-21 m, respectively. […] Food consumption and body weight were recorded every 2 weeks and every month, respectively. […]
Every 25th retinal section was deparaffinized and subjected to hematoxylin and eosin (H & E) staining to evaluate the morphology. […] The thicknesses of the ONL and INL of the central and peripheral retina in each group (every 25th section from the optic nerve head, 2–3 sections per rat or mouse, n = 3–7 rats per group; n = 5–6 mice per group) were measured and quantified by using the ImageJ/NIH image analysis system. […]

[5] = tested on: Iba-1; assay: Microgliosis, Iba-1 immunofluorescence in retina of 3xTg-AD mice; format: in vivo, mouse; conditions: female 3xTg-AD mice, 60 nmoles P021/g feed from 3 to 21 months of age
From the text: as §6
(§7) Paraffin sections were deparaffinized, rehydrated, and subjected to antigen retrieval by boiling for 20 min in 10 mM sodium citrate solution (pH 6.0). […] The area to be analyzed was selected, converted to grayscale, and thresholded using Yen’s arithmetic, and the area percentage of positive staining was measured for each section by using the NIH ImageJ software package. The staining area was quantified from two to three sections of each eye and averaged (n = 5–7 animals per group).

[6] = tested on: Iba-1; assay: Microgliosis, Iba-1 immunofluorescence in retina of aged rats; format: in vivo, rat; conditions: female Fisher rats ~19-21 months, 500 nmoles/kg/day by gavage for 3 months
Description: as §1, §4, §7

[7] = tested on: GFAP; assay: Astrogliosis, GFAP immunofluorescence in retina of 3xTg-AD mice; format: in vivo, mouse; conditions: female 3xTg-AD mice, 60 nmoles P021/g feed from 3 to 21 months of age
From the text: as §5, §4, §7

[8] = tested on: GFAP; assay: Astrogliosis, GFAP immunofluorescence in retina of aged rats; format: in vivo, rat; conditions: female Fisher rats ~19-21 months, 500 nmoles/kg/day by gavage for 3 months; n = 6-7 rats; vs 22-24 m/Veh
Description: as §1, §4, §7

[9] = tested on: total tau, phosphorylated tau, Aβ/APP; assay: Tau and Aβ pathologies, immunofluorescence in retina of aged rats; format: in vivo, rat; conditions: aged Fisher rats, 500 nmoles/kg/day by gavage for 3 months; qualitative, not quantified, 2-3 animals/group
Description: as §1, §4, §7

[10] = tested on: total tau, phosphorylated tau, Aβ/APP; assay: Tau and Aβ pathologies, immunofluorescence in retina of aged 3xTg-AD mice; format: in vivo, mouse; conditions: 60 nmoles P021/g feed from 3 to 21 months of age, qualitative, not quantified, 2-3 animals/group
From the text: as §6, §7

[11] = tested on: VEGF; assay: VEGF immunofluorescence in retina and optic nerve of aged 3xTg-AD mice; format: in vivo, mouse; conditions: 60 nmoles P021/g feed from 3 to 21 months of age, qualitative, 2-3 animals/group
From the text: as §6, §7

[12] = method not given, block ends with ref Kazim et al., 2014, cited from earlier work
Description: P021 is quite stable in artificial gastric juice (~90% for 30 min) and in artificial intestinal juice (>95% for 120 min).

[13] = commercial service (APREDICA, Watertown, MA, USA); ref Kazim et al., 2014; cited from earlier work
[14] = tested on: aged rats and mice; conditions: chronic oral treatment in aged rats and mice, earlier study; ref Kazim et al., 2014; cited from earlier work
From the text: At as early as 12 months of age, OXYS rats and Wistar rats are known to show AMD-like pathology, such as BM thickening and lipofuscin accumulation (Neroev et al., [2008]; Markovets et al., [2011]). […] Here, to assess the AMD-like retinal pathology induced by aging and to study the effect of P021 on the p ...

Substance: Ac-DGGL^AG-NH2 [P021]
- outer retinal folds and rosette-like structures in the central retina [1]: No abnormal structure like this was observed
- rows and thickness of INL in the central retina [1]: no detectable effect
- rows and thickness of ONL, central and peripheral retina ([1]; vs 22-24 m/Veh): prevented these pathological changes more effectively in the central retina
- rows of INL in the peripheral retina ([1]; vs 22-24 m/Veh): showed a clear trend to rescue the number of rows
- arrangement of apical microvilli (AM) in RPE ([2]; H & E): showed improvement in the arrangement of AM
- vacuolation and atrophy of RPE ([2]; H & E): no apparent abnormalities were observed
- lipofuscin granules and deposition number between RPE and Cho ([2]; auto-fluorescence λex = 543, n = 7 rats, vs 22-24 m/Veh): markedly decreased
- extension of ONL nuclei across the OPL or into the INL, central retina ([3]; H & E): this pathology was prevented
- prevention of changes in rows and thickness of INL in the peripheral retina ([3]; vs 3xTg-21 m/Veh, H & E): did not reach significance
- rows and thickness of INL in the central retina ([3]; vs 3xTg-21 m/Veh, H & E): prevented these changes
- rows and thickness of ONL in the central retina ([3]; vs 3xTg-21 m/Veh, H & E): these changes in the central retina were prevented
- rows and thickness of ONL in the peripheral retina ([3]; vs 3xTg-21 m/Veh, H & E): showed a trend to rescue these changes
- rescue of INL thickness in the central retina ([3]; vs 3xTg-21 m/Veh, obvious trend): did not reach statistical significance
- thickening of the BM ([4]; H & E): no BM thickening
- number of deposits between the RPE and Cho ([4]; auto-fluorescence λex = 543, n = 5 mice, vs 3xTg-21 m/Veh): significantly reduced
- distribution of Iba-1-positive staining in the central retina [5]: only observed in the GCL
- area percentage of Iba-1 immunostaining in the peripheral retina ([5]; NFL to ONL, n = 3-6 mice, vs 3xTg-21 m/Veh): decreased in 3xTg-21 m/P021 mice to the levels in WT-3 m/Veh and 3xTg-3 m/Veh mice
- localization of Iba-1-positive microglial cells in the retina ([6]; especially central retina): no staining was found from the ONL to the OS
- relative Iba-1 immunostaining from the NFL to the OS, central and peripheral retinas ([6]; n = 6-7 rats, vs 22-24 m/Veh): dramatically reduced
- distribution of GFAP-positive staining in the retina [7]: limited to the NFL and GCL
- area percentage of GFAP in the peripheral retina, changes between groups ([7]; n = 3-6 mice, similar trend, large standard error): did not reach statistical significance
- area percentage of GFAP from the NFL to the ONL in the central retina ([7]; n = 5-6 mice, vs 3xTg-21 m/Veh): reduced by P021 treatment to the levels in WT-3 m/Veh and 3xTg-3 m/Veh mice
- GFAP staining in central and peripheral retinas [8]: reduced very much
- tau and Aβ pathologies in the retina (R134d, PHF-1, AT8, 4G8, Aβ immunofluorescence) [9]: prevented the trend in the increase in tau and Aβ pathologies
- tau and Aβ pathologies in the retina (R134d, PHF-1, AT8, 4G8, Aβ immunofluorescence) [10]: prevented the trend in the increase in tau and Aβ pathologies
- VEGF staining in the optic nerve [11]: the size of the staining patch was decreased
- localization of VEGF-positive spots in the retina [11]: limited mainly to the GCL to the IPL
- stability in artificial gastric juice ([12]; 30 min): ~ 90%
- stability in artificial intestinal juice ([12]; 120 min): > 95%
- BBB crossing [13]: a sufficient amount of P021 crossed the BBB
- general physical state / side effects [14]: did not observe any worsening in general physical state
